Laboratory results from US5091365A, “Cyclic peptides as promoters of absorption on administration onto the mucosa” (Hoechst Aktiengesellschaft, priority 1987, dated 1992).

How the values were obtained:
male rats [1] = assay: LH release in male rats under urethane anesthesia over 6-7 hours; assay type: in vivo, rat; conditions: aid 0.01M, 10 ng of buserelin
Procedure: 2. An example of another method suitable for detecting the enhancement of the effect due to increased absorption is determination of the LH release in male rats (weighing 100 g, under urethane anesthesia). […] It emerged that both bacitracin and colistin and polymyxin B (0.01M) increased the effect of a dose of 10 ng of buserelin, measured by the areas under the curve, by a factor of 3.3-14.

rat = assay: Increase of absorption of peptide active substances from the mucosa in the rat; assay type: in vivo
Procedure: 1. The effect of cyclic peptides on the nasal and rectal absorption of LHRH (gonadorelin) and LHRH agonists (for example buserelin) was investigated in the following way: female rats weighing 60 g are pretreated with horse serum gonadotropin (PMSG) 10 I.U. (day 1, 09:00) for follicle stimulation. On the third day after the pretreatment, the ovulation which spontaneously occurs at about 14:00 is suppressed by injection of phenobarbital (4 mg/animal i.p. around 13:00). […] On the next day of the experiment (day 4) the animals are sacrificed at about 09:00, both uterine tubes are dissected out and, after staining with patent blue, the number of ova is counted under a stereomicroscope (ovulatory effect of the test substances). The increase in the absorption of the test substances from mucosal surfaces is assessed by comparison of the effect on ovulation in the absence or after addition of, for example, bacitracin 0.001-0.05M. […]
2. […] It emerged that both bacitracin and colistin and polymyxin B (0.01M) increased the effect of a dose of 10 ng of buserelin, measured by the areas under the curve, by a factor of 3.3-14.
3. […] GH in serum is determined 15-120 minutes after the treatment (for example nasally or rectally) by a specific radioimmunoassay.

female rats [2] = assay: Release of growth hormone (GH) in serum of PMSG-pretreated rats, radioimmunoassay; assay type: in vivo, rat; conditions: for finding with other GHRH agonists on addition of bacitracin (GH release): compared with (DAla2) GRF-29 amide: 40 μg without = 20 μg with 0.001M bacitracin
Procedure: 3. The effect of cyclic peptides of the nasal absorption of GHRH analogs was investigated in the following way: In the same model as described for the ovulatory effect of LHRH, it is possible on the third day after the pretreatment with PMSG to test the release of growth hormone (GH). GH in serum is determined 15-120 minutes after the treatment (for example nasally or rectally) by a specific radioimmunoassay.

female rats [3] = assay: Ovulation induction in PMSG-pretreated, phenobarbital-blocked female rats (number of ova counted); assay type: in vivo, rat
Procedure: 1. The effect of cyclic peptides on the nasal and rectal absorption of LHRH (gonadorelin) and LHRH agonists (for example buserelin) was investigated in the following way: female rats weighing 60 g are pretreated with horse serum gonadotropin (PMSG) 10 I.U. (day 1, 09:00) for follicle stimulation. On the third day after the pretreatment, the ovulation which spontaneously occurs at about 14:00 is suppressed by injection of phenobarbital (4 mg/animal i.p. around 13:00). The treatment with the test substance (for example LHRH or buserelin intranasally in a physiologically tolerated buffer solution of pH 3.0-7.5 in a volume of 2-20 μl, rectal administration of suppositories etc.) is carried out at about 13:30. This treatment induces ovulation dose-dependently. On the next day of the experiment (day 4) the animals are sacrificed at about 09:00, both uterine tubes are dissected out and, after staining with patent blue, the number of ova is counted under a stereomicroscope (ovulatory effect of the test substances). The increase in the absorption of the test substances from mucosal surfaces is assessed by comparison of the effect on ovulation in the absence or after addition of, for example, bacitracin 0.001-0.05M. It is also possible to use as parameter of the effect in the same design of experiment the dose-dependent increase in luteinizing hormone (LH) in the serum one hour after treatment. [Sandow J, von Rechenberg W & Jerzabek G (1976): The effect of LHRH, prostaglandins and synthetic analogues of LHRH on ovarian metabolism. Europ. J. Obstetr. Gynaec. Reprod. Biol. 6, 185-190.]

male rats [4] = assay: Serum calcium concentration in male rats after intranasal salmon calcitonin; assay type: in vivo, rat; conditions: 0.6-1.2 μg of salmon calcitonin intranasal, addition of 0.01M bacitracin, 1-6 h
Procedure: 5. The effect of cyclic peptides on the absorption of calcitonin and calcitonin analogs (for example salmon calcitonin) can be investigated on male rats weighing 100 or 200 g, for example after intranasal treatment with salmon calcitonin, by determination of the serum calcium concentration over a period of 1-6 h after the treatment. It was found in this that the effect of 0.6-1.2 μg of salmon calcitonin was increased by a factor of 4-6 by addition of, for example, 0.01M bacitracin.

female rats [5] = assay: Increase in luteinizing hormone (LH) in serum, same design of experiment in female rats; assay type: in vivo, rat
rectal mucosa = assay: Rectal mucosa tolerability of hard fat suppositories in rats; assay type: in vivo, rat; conditions: hard fat suppositories with 1 mg of bacitracin, rats weighing 100 g, 3 hours after treatment
Procedure: Furthermore, the compounds according to the invention cause no sensation of pain in humans on nasal administration of 1 to 200 μl of a concentration of 10^-5 to 10^-1 mol/l. […] Local administration of the same concentration by vaginal, rectal or buccal drug forms (i.e., for example, films, tablets, suppositories) likewise causes no irritation to the mucosa.

male rats [6] = assay: Corticosterone release in serum of male rats after nasal ACTH analog, radioimmunoassay; assay type: in vivo, rat; conditions: over 3 h after nasal alsactide (ACTH-17) 5 μg in the presence of 0.01M bacitracin
Procedure: 4. The effect of cyclic peptides on the absorption of ACTH (corticotropin) and ACTH analogs was investigated in male rats (weighing 100 g) after treatment under anesthesia with pentobarbital or ether. The corticosterone release in the serum was determined by a specific radioimmunoassay as a parameter of the effect. It emerged that the corticosterone release over 3 h after nasal treatment, for example, with the ACTH analog alsactide (ACTH-17) in a dose of 5 μg was increased by a factor of 5 in the presence of 0.01M bacitracin.

[7] = system: isolated gastric mucosa of the guinea pig; assay: Tolerability: patent blue permeation through isolated guinea pig gastric mucosa
Source text: 6. The tolerability of various cyclic peptides as are used as aids to increase absorption can be tested on the isolated gastric mucosa of the guinea pig. [Wirth K, Bickel M & Deutschlander N (1987): Patent blue permeation through the isolated guinea pig gastric mucosa: a quantitative method for the assessment of gastric irritants. Med. Sci. Res. 15, 881.]

For polymyxin B, the “increase of the effect of buserelin on LH release, areas under the curve, factor” value (from here on “increase of the effect of buserelin”) (male rats [1]) was 3.3-14.
In the case of `C[C@H](CCC(=O)O)[C@H]1CC[C@H]2[C@@H]3CC[C@@H]4C[C@H](O)CC[C@]4(C)[C@H]3C[C@H](O)[C@]12C` [deoxycholic acid], the “concentration required to increase absorption in the rat” value (rat; rat, in vivo) is reported as 0.02 M.
In the case of (DAla2, NLeu27) GRF-29 amide, the “finding with other GHRH agonists on addition of bacitracin (GH release)” value (female rats [2]) is reported as “similar”.
With (DAla2) GRF-29 amide the “dose of (DAla2) GRF-29 amide giving corresponding GH release effect, without bacitracin” value (female rats [2]; i.n., without bacitracin) was 40 µg.
`CCNC(=O)[C@@H]1CCCN1C(=O)[C@H](CCCNC(=N)N)NC(=O)[C@H](CC(C)C)NC(=O)[C@@H](COC(C)(C)C)NC(=O)[C@H](Cc1ccc(O)cc1)NC(=O)[C@H](CO)NC(=O)[C@H](Cc1c[nH]c2ccccc12)NC(=O)[C@H](Cc1cnc[nH]1)NC(=O)[C@@H]1CCC(=O)N1` [buserelin] was tested, and the “dose of buserelin giving the same ovulatory effect, without aid” value (female rats [3]; buserelin in physiological saline containing 0.1% gelatin) was 80 ng and the “dose of buserelin at which ovulation occurred, rectal suppositories, without bacitracin” value (female rats [3]; rectal treatment of rats with buserelin suppositories, no aid) was 400 ng.
With bacitracin the “increase of the effect of salmon calcitonin (serum calcium), factor” value (male rats [4]) was 4-6, the “increase of the effect of buserelin” value (male rats [1]) was 3.3-14 and the “dose of LHRH giving the same ovulatory effect, with aid” value (female rats [3]; LHRH in a solution of 0.001M bacitracin, equals effect of 8 μg without aid) was 2 µg. For the same molecule, the “dose of buserelin giving the same ovulatory effect, with aid” value (female rats [3]; buserelin in a solution of 0.001M bacitracin, equals effect of 80 ng without aid) was 20 ng, the “dose of buserelin at which ovulation was induced, rectal suppositories, after addition of bacitracin” value (female rats [3]; rectal treatment of rats with buserelin suppositories plus bacitracin) was 50 ng and the “dose of (DAla2) GRF-29 amide giving corresponding GH release effect, with bacitracin” value (female rats [2]; i.n., addition of 0.001M bacitracin, equals effect of 40 μg without) was 20 µg. For the same molecule, the “enhancement of absorption, factor, from LH release by buserelin” value (female rats [5]; buserelin in the presence of 0.001M bacitracin) was “more than 3”, the “inflammatory change of the rectal mucosa” value (rectal mucosa) was “no inflammatory change” and the “increase of corticosterone release, factor” value (male rats [6]) was 5. For the same molecule, the “increase of absorption of LHRH agonists, GHRH agonists and similar active substances, factor” value (rat; addition of 0.001M bacitracin) was 3-4 and the “concentration that can be placed on the mucosa without damage” value [7] was “more than 0.006 M”.
For colistin, the “increase of the effect of buserelin” value (male rats [1]) was 3.3-14 and the “enhancement of LHRH effect on investigation of the LH release” value (female rats [5]; LHRH in the presence of 0.001M colistin) was “this effect also emerged”.
For `CC(C)C[C@H](NC(=O)CNC(=O)[C@H](Cc1ccc(O)cc1)NC(=O)[C@H](CO)NC(=O)[C@H](Cc1c[nH]c2ccccc12)NC(=O)[C@H](Cc1cnc[nH]1)NC(=O)[C@@H]1CCC(=O)N1)C(=O)N[C@@H](CCCNC(=N)N)C(=O)N1CCC[C@H]1C(=O)NCC(N)=O` [LHRH, LHRH (gonadorelin)], the “dose of LHRH giving the same ovulatory effect, without aid” value (female rats [3]; LHRH in physiological saline containing 0.1% gelatin) was 8 µg.
For (Leu27, Gly45) GHRH (1-44), the “finding with other GHRH agonists on addition of bacitracin (GH release)” value (female rats [2]) was “similar”.
